Source: ChEMBL document CHEMBL5113392, “Novel hybrid pyrrolidinedione-thiazolidinones as potential anticancer agents: Synthesis and biological evaluation” (Eur J Med Chem, 2022)

Experiments:
U-251 = test: Anticancer activity against human U-251 cells assessed as cell growth inhibition incubated for 72 hrs by MTT assay; type: functional
[1] = Selectivity index, ratio of GI50 for human HaCaT cells to GI50 for human HeLa cells; type: toxicity; conditions: HaCaT cells versus HeLa cells, read-out: RatioGI50
Jurkat = test: Anticancer activity against human Jurkat cells assessed as cell growth inhibition incubated for 72 hrs by MTT assay; type: functional
[2] = Selectivity index, ratio of GI50 for human HaCaT cells to GI50 for human A549 cells; type: toxicity; conditions: HaCaT cells versus A549 cells, read-out: RatioGI50
[3] = Selectivity index, ratio of GI50 for human HaCaT cells to GI50 for human Jurkat cells; type: toxicity; conditions: HaCaT cells versus Jurkat cells, read-out: RatioGI50
A549 = test: Anticancer activity against human A549 cells assessed as cell growth inhibition incubated for 72 hrs by MTT assay; type: functional
[4] = Selectivity index, ratio of GI50 for human HaCaT cells to GI50 for human HCT-116 cells; type: toxicity; conditions: HaCaT cells versus HCT-116 cells, read-out: RatioGI50
SK-OV-3 = test: Anticancer activity against human SK-OV-3 cells assessed as cell growth inhibition incubated for 72 hrs by MTT assay; type: functional
[5] = Cytotoxicity against human HaCaT cells assessed as cell growth inhibition incubated for 72 hrs by MTT assay; type: toxicity, cell-based
[6] = Selectivity index, ratio of GI50 for human HaCaT cells to GI50 for human U-251 cells; type: toxicity; conditions: HaCaT cells versus U-251 cells, read-out: RatioGI50
HeLa = test: Anticancer activity against human HeLa cells assessed as cell growth inhibition incubated for 72 hrs by MTT assay; type: functional
MCF7 [7] = test: Anticancer activity against human MCF7 cells assessed as cell growth inhibition incubated for 72 hrs by MTT assay; type: functional
UO-31 = test: Anticancer activity against human UO-31 cells assessed as inhibition of cell growth at 10 uM incubated for 48 hrs by SRB assay; type: functional; conditions: UO-31, 48 h, values are per cent of control
HCT-116 = test: Anticancer activity against human HCT-116 cells assessed as cell growth inhibition incubated for 72 hrs by MTT assay; type: functional
[8] = Selectivity index, ratio of GI50 for human HaCaT cells to GI50 for human SK-OV-3 cells; type: toxicity; conditions: HaCaT cells versus SK-OV-3 cells, read-out: RatioGI50
[9] = Selectivity index, ratio of GI50 for human HaCaT cells to GI50 for human HCT116-p53-null cells; type: toxicity; conditions: HaCaT cells versus HCT116-p53-null cells, read-out: RatioGI50
[10] = Anticancer activity against human HCT116-p53-null cells assessed as cell growth inhibition incubated for 72 hrs by MTT assay; type: functional
MDA-MB-231 = test: Anticancer activity against human MDA-MB-231 cells assessed as cell growth inhibition incubated for 72 hrs by MTT assay; type: functional
[11] = Selectivity index, ratio of GI50 for human HaCaT cells to GI50 for human MDA-MB-231 cells; type: toxicity; conditions: HaCaT cells versus MDA-MB-231 cells, read-out: RatioGI50
[12] = Selectivity index, ratio of GI50 for human HaCaT cells to GI50 for human MCF7 cells; type: toxicity; conditions: HaCaT cells versus MCF7 cells, read-out: RatioGI50
RPMI-8226 = test: Anticancer activity against human RPMI-8226 cells assessed as inhibition of cell growth at 10 uM incubated for 48 hrs by SRB assay; type: functional
Salmon testes DNA = test: Displacement of methyl green from salmon sperm DNA at 10 uM measured after 2 hrs by fluorescence plate reader method relative to control; type: nucleic-acid assay; conditions: Salmo salar
LOX IMVI = test: Anticancer activity against human LOX IMVI cells assessed as inhibition of cell growth at 10 uM incubated for 48 hrs by SRB assay; type: functional
UACC-62 = test: Anticancer activity against human UACC-62 cells assessed as inhibition of cell growth at 10 uM incubated for 48 hrs by SRB assay; type: functional
MOLT-4 = test: Anticancer activity against human MOLT-4 cells assessed as inhibition of cell growth at 10 uM incubated for 48 hrs by SRB assay; type: functional
[13] = Cytotoxicity against mitogen activated human peripheral blood lymphocytes assessed as cell growth inhibition incubated for 24 hrs by MTT assay; type: toxicity, cell-based, Lymphocyte
[14] = Selectivity index, ratio of GI50 for human HaCaT cells to GI50 for human KB 3-1 cells; type: toxicity; conditions: HaCaT cells versus KB 3-1 cells, read-out: RatioGI50
MDA-MB-435 = test: Anticancer activity against human MDA-MB-435 cells assessed as inhibition of cell growth at 10 uM incubated for 48 hrs by SRB assay; type: functional
CAKI-1 = test: Anticancer activity against human CAKI-1 cells assessed as inhibition of cell growth at 10 uM incubated for 48 hrs by SRB assay; type: functional; conditions: CAKI-1, 48 h, values are per cent of control
KB 3-1 = test: Anticancer activity against human KB 3-1 cells assessed as cell growth inhibition incubated for 72 hrs by MTT assay; type: functional
[15] = Cytotoxicity against mitogen activated human peripheral blood lymphocytes assessed as cell growth inhibition incubated for 48 hrs by MTT assay; type: toxicity, cell-based, Lymphocyte
MCF7 [16] = test: Anticancer activity against human MCF7 cells assessed as inhibition of cell growth at 10 uM incubated for 48 hrs by SRB assay; type: functional; conditions: MCF7, 48 h, values are per cent of control

SMILES	GI50 (U-251) [µM]	selectivity ratio [1]	GI50 (Jurkat) [µM]	selectivity ratio [2]	selectivity ratio [3]	GI50 (A549) [µM]	selectivity ratio [4]	GI50 (SK-OV-3) [µM]	GI50 at 72 h [5] [µM]	selectivity ratio [6]	GI50 (HeLa) [µM]	GI50 (MCF7 [7]) [µM]	GI50 (HCT-116) [µM]	selectivity ratio [8]	selectivity ratio [9]	GI50 [10] [µM]	GI50 (MDA-MB-231) [µM]	selectivity ratio [11]	selectivity ratio [12]	further results
O=C1CC(N2C(=O)CSC2=S)C(=O)N1c1ccc(Cl)cc1 (stereo not given)	> 100	1	88.4	0.98	1.1	> 100	0.98	> 100	97.7	0.98	> 100	> 100	> 100	0.98	0.98	> 100	> 100	0.98	0.98	growth, % of control at 10 µM (UO-31): 76.3%
O=C1Nc2ccccc2/C1=C1/SC(=S)N(C2CC(=O)N(c3ccc(Cl)cc3)C2=O)C1=O (stereo not given)	> 100	1	49.9	1	2	> 100	1	> 100	> 100	1	> 100	> 100	> 100	1	1	> 100	> 100	1	1	inhibition at 10 µM (RPMI-8226): 36.3%; growth, % of control at 10 µM (UO-31): 68.5%
CC[n+]1c(-c2ccccc2)c2cc(N)ccc2c2ccc(N)cc21																				Activity (Salmon testes DNA): 84.1%
C=CCOc1cccc(/C=C2\SC(=S)N(C3CC(=O)N(c4ccc(Cl)cc4)C3=O)C2=O)c1 (stereo not given)	> 100	1	74	1	1.35	> 100	1	> 100	> 100	1	> 100	98	> 100	1	1	> 100	> 100	1	1.02	inhibition at 10 µM (LOX IMVI): 14.2%
O=C1CC(N2C(=O)CSC2=S)C(=O)N1c1ccc(O)cc1 (stereo not given)	> 100	1	23.4	1	4.27	> 100	1	60.8	> 100	1	> 100	> 100	> 100	1.64	1	> 100	> 100	1	1	
O=C1Nc2ccc(Cl)cc2/C1=C1/SC(=S)N(C2CC(=O)N(c3ccc(Cl)cc3)C2=O)C1=O (stereo not given)	> 100	1.72	6.1	1	16.4	> 100	1	> 100	> 100	1	58	> 100	> 100	1	1	> 100	> 100	1	1	
C=CCOc1cccc(/C=C2\SC(=S)N(C3CC(=O)N(c4ccc(Br)cc4)C3=O)C2=O)c1 (stereo not given)																				inhibition at 10 µM (UACC-62): 86.8%
CCN(CC)c1ccc(/C=C2\SC(=S)N(C3CC(=O)N(c4ccc(Cl)cc4)C3=O)C2=O)cc1 (stereo not given)																				inhibition at 10 µM (UACC-62): 73.3%; inhibition at 10 µM (MOLT-4): 76%
C=CCOc1ccccc1/C=C1\SC(=S)N(C2CC(=O)N(c3ccc(Cl)cc3)C2=O)C1=O (stereo not given)	91.2	2.1	53.3	1	1.88	> 100	1.75	> 100	> 100	1.1	47.5	80.3	57.1	1	10.4	9.6	98.6	1.01	1.25	GI50 at 24 h [13]: > 100 µM; selectivity ratio [14]: 1; inhibition at 10 µM (MDA-MB-435): 68.2%; growth, % of control at 10 µM (CAKI-1): 72.2%; GI50 (KB 3-1): > 100 µM; GI50 at 48 h [15]: > 100 µM
O=C1Nc2ccccc2/C1=C1/SC(=S)N(C2CC(=O)N(c3ccc(Br)cc3)C2=O)C1=O (stereo not given)	> 100	1	21.5	1	4.65	> 100	1	> 100	> 100	1	> 100	> 100	> 100	1	1	> 100	> 100	1	1	inhibition at 10 µM (LOX IMVI): 33.8%; growth, % of control at 10 µM (MCF7 [16]): 45.7%; inhibition at 10 µM (RPMI-8226): 50%
